# Laboratory results: patent publication US20230255974A1, “USE OF THYROMIMETICS FOR THE TREATMENT OF CANCER” (THE UNIVERSITY OF VERMONT, priority 2020, published 2023)
# Columns and labels:
# [1] = tested on: SW1736 cells (SW-EV, SW-TRβ); experiment: Growth assay (live cell imaging), T3; format: cell-based, human
# Protocol: Culture of thyroid cell lines. Anaplastic thyroid cancer cell lines (SW1736 and KTC-2) were cultured in RPMI 1640 growth media with L-glutamine (300 mg/L), sodium pyruvate and nonessential amino acids (1%) (Cellgro/Mediatech), supplemented with 10% fetal bovine serum (Life Technologies) and penicillin-streptomycin ([…]) (Cellgro/Mediatech) at 37° C., 5% CO2, and 100% humidity. The cell lines were generously provided by Dr. John Copland III (Mayo Clinic). Lentivirally modified SW1736 cells were generated as recently described (Gillis et al., “Thyroid Hormone Receptor β Suppression of RUNX2 is Mediated by Brahma Related Gene 1 Dependent Chromatin Remodeling.” Endocrinol. 159(6):2484-94 (2018), which is hereby incorporated by reference in its entirety) with either an empty vector (SW-EV) or to overexpress TRβ (SW-TRβ). SW-EV and SW-TRβ were grown in the above conditions with the addition of 1 μg/ml puromycin (Gold Bio). All cells were authenticated by the Vermont Integrative Genomics Resource at the University of Vermont using short tandem repeat profiles and Promega GenePrint10 System (SW1736, May 2019; KTC-2, October 2019).
# Growth Assays. Cell growth was measured either through live cell imaging or by cell counting at discrete points. Live cell imaging was used to assess the growth kinetics of SW-EV and SW-TRβ. To perform live cell imaging, 5000 cells were plated per well in 24 well plates. After 24 hours in phenol red free, charcoal stripped media, media was supplemented with either 10^−8 M T3 or equivolume vehicle (NaOH). Every two hours cells were imaged with a Lionheart automated microscope (BioTek) and quantified with Gen5 software (BioTek). The cells entered the log phase of growth at approximately 48 hours, and the portion of the curve following this point was used to calculate the doubling time of the cells. In order to measure growth manually, 25,000 cells were plated per well in a six well plate. […] Every 24 hours cell counts were assessed by hemocytometer.
# [2] = tested on: SW1736 cells (SW-EV, SW-TRβ); experiment: Migration (wound healing) assay, T3; format: cell-based, human; details: SW-TRβ treated with T3 vs SW-EV
# Protocol: Migration Assay. Cell migration was determined by wound healing assay. Cells were plated and allowed to grow to 100% confluency. Two hours prior to scratching, cells were treated with […] Mitomycin C. A scratch was performed with a P1000 pipette tip and debris was washed away with PBS. Migration media was supplemented with 10^−8 M T3. Images were obtained at 0, 24, 48, and 72 hours. Wound closure was measured using ImageJ macro “Wound Healing Tool” (http://dev.mri.cnrs.fr/projects/imagej-macros/wiki/Wound_Healing_Tool). Values were normalized so that the initial scratch was 0% closure.
# [3] = tested on: SW1736 cells (SW-EV, SW-TRβ); experiment: Tumorsphere assay, T3; format: cell-based, human; details: 10^−8 M T3, seven days
# [4] = tested on: SW1736 cells (SW-EV, SW-TRβ); experiment: Apoptosis assay (PARP1 and caspase 3 cleavage, immunoblot); format: cell-based, human
# Text: Immunoblot Analysis. […] Proteins were resolved by polyacrylamide gel electrophoresis on 10% sodium dodecyl sulfate gels EC60752 (Life Technologies) and immobilized onto nitrocellulose membranes (GE Healthcare) by electroblot (Bio-Rad Laboratories). Specific proteins were detected by immunoblotting with the indicated antibodies (Table 4); immunoreactive proteins were detected by enhanced chemiluminescence (Thermo Scientific) on a ChemiDoc XRS+ (Bio-Rad Laboratories).
# Apoptosis Assay. Cells were plated at a density of 50,000 cells/well and treated with vehicle (1 N NaOH) or 10^−8 M T3. After 5 days the cells were lysed for analysis by immunoblot. Poly (ADP-ribose) polymerase 1 (PARP1) and Caspase 3 cleavage were assessed to measure apoptotic signaling.
# Immunoblot Analysis. […] Proteins were resolved by polyacrylamide gel electrophoresis on 10% sodium dodecyl sulfate gels EC60752 (Thermo Fisher Scientific) and immobilized onto nitrocellulose membranes (GE Healthcare, Chicago, Ill., USA) by electroblot (Bio-Rad Laboratories, Hercules, Calif., USA). Specific proteins were detected by immunoblotting with the indicated antibodies (Table 4); immunoreactive proteins were detected by enhanced chemiluminescence (Thermo Scientific) on a ChemiDoc XRS+ (Bio-Rad Laboratories).
# [5] = tested on: interferon/JAK1/STAT1 pathway; experiment: Interferon/JAK1/STAT1 pathway expression (immunoblot, qPCR); format: cell-based, human; details: SW-TRβ
# Protocol: Immunoblot Analysis. Proteins were isolated from whole cells in lysis buffer (20 mM Tris-HCl [pH 8], 137 mM NaCl, 10% glycerol, 1% Triton X-100, and 2 mM EDTA) containing Protease Inhibitor Cocktail 78410 (Thermo Scientific). Proteins were resolved by polyacrylamide gel electrophoresis on 10% sodium dodecyl sulfate gels EC60752 (Life Technologies) and immobilized onto nitrocellulose membranes (GE Healthcare) by electroblot (Bio-Rad Laboratories). Specific proteins were detected by immunoblotting with the indicated antibodies (Table 4); immunoreactive proteins were detected by enhanced chemiluminescence (Thermo Scientific) on a ChemiDoc XRS+ (Bio-Rad Laboratories). RNA Extraction and Quantitative Real-Time PCR (qRT-PCR). Total RNA was extracted using RNeasy Plus Kit (Qiagen) according to manufacturer's protocol. cDNA was then generated using the 5×RT Mastermix (ABM). Gene expression to validate RNASeq analysis was quantified by qRT-PCR using 2×SuperGreen Mastermix (ABM) on a QuantStudio 3 real-time PCR system (Applied Biosystems). Fold change in gene expression compared to endogenous controls was calculated using the ddCT method.
# [6] = tested on: MDA-MB-468 cells (EV, TRβ); details: MDA-MB-468 in the presence of TRβ, 10 nM, 3 days
# Protocol: Triple negative breast cancer were examined next. […] TNBC cancers and other advanced solid tumors have lower endogenous levels of expression of TRβ. […] Cell migration was measured by scratch assay (FIG. 28). […] Data are mean+/−SD; *indicates p<0.05 determined by t-test.
# NthyOri thyroid cells = details: normal-like NthyOri thyroid cells
smiles,measurement,setting,value
"N[C@@H](Cc1cc(I)c(Oc2ccc(O)c(I)c2)c(I)c1)C(=O)O [T3, (2S)-2-amino-3-[4-(4-hydroxy-3-iodophenoxy)-3,5-diiodophenyl]propanoic acid]",growth rate,"[1]; SW-EV, 10^−8 M T3 vs vehicle",modestly decreased the growth rate
same,cellular growth,"[1]; SW-TRβ (TRβ overexpression), 10^−8 M T3",profoundly reduced cellular growth
same,doubling time,"[1]; SW-TRβ, T3 treated",greatest doubling time
same,scratch closure (AUC),[2],significantly reduced scratch closure
same,number of tumorspheres formed,[3]; SW-EV,no effect on the number of tumorspheres
same,tumorsphere growth,[3]; SW-TRβ,blocked almost all tumorsphere growth
same,caspase 3 and PARP1 cleavage,"[4]; SW-EV and SW-TRβ, T3, 5 days",induced cleavage of these apoptotic effectors only in SW-TRβ
same,apoptosis (cleaved PARP and caspase),"[4]; SW-TRβ, five days",induces apoptosis
same,expression of IRF1 target genes APOL6 and TNFSF10 (qPCR),[5]; T3,Induction of IRF1 target genes APOL6 and TNFSF10
same,expression of STAT1 target genes IRF1 and TAP1 (qPCR),[5]; T3,increased the expression of STAT1 target genes IRF1 and TAP1
same,expression of JAK1 and STAT1,[5]; T3 treatment,significantly increased
same,cell migration and growth,[6],reduced cell migration and growth
same,cell phenotypic or signaling changes,NthyOri thyroid cells,No cell phenotypic changes or signaling changes were observed
